ChEMBL document CHEMBL4507262, “Data for DCP probe A-1596586” (2021)

Columns and labels:
[1] = molecular target: T1, 5-hydroxytryptamine receptor 2C (Homo sapiens) (UniProt P28335); test: 5-HT2C (h) Eurofins-Cerep binding assay; set-up: ligand concentration 1 nM; conditions: filed as antagonist, Compound concentration 10.0 uM
T1 sequence (whole entry): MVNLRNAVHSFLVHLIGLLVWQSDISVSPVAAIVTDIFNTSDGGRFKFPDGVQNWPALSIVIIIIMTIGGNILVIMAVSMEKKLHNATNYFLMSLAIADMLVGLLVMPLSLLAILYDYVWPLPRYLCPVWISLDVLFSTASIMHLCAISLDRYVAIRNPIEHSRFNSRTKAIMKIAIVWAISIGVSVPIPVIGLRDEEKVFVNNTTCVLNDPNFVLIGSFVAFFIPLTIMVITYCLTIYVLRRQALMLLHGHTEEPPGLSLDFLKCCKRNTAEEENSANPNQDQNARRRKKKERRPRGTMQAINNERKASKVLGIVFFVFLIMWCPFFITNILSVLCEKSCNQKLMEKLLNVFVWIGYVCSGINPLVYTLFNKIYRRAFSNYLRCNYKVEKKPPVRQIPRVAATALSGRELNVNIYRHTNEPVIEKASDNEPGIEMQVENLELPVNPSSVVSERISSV

[2] = molecular target: Vasoactive intestinal polypeptide receptor 1 (Homo sapiens) (UniProt P32241); test: VPAC1 (VIP1) (h) Eurofins-Cerep binding assay; conditions: filed as agonist, Compound concentration 10.0 uM
[3] = system: Tyrosine-protein kinase ABL1 (Homo sapiens), P00519 [F317I]; conditions: Compound concentration 1000.0 nM
[4] = system: Tyrosine-protein kinase ABL1 (Homo sapiens), P00519 [H396P]; conditions: Compound concentration 1000.0 nM
[5] = system: ALK tyrosine kinase receptor (Homo sapiens), Q9UM73 [L1196M]; conditions: Compound concentration 1000.0 nM
[6] = molecular target: Ankyrin repeat and protein kinase domain-containing protein 1 (Homo sapiens) (UniProt Q8NFD2); conditions: Compound concentration 1000.0 nM
[7] = molecular target: Calcium/calmodulin-dependent protein kinase type 1D (Homo sapiens) (UniProt Q8IU85); conditions: Compound concentration 1000.0 nM
[8] = molecular target: Cyclin-dependent kinase 4 (Homo sapiens) (UniProt P11802); conditions: Compound concentration 1000.0 nM
[9] = molecular target: Cyclin-dependent kinase 9 (Homo sapiens) (UniProt P50750); conditions: Compound concentration 1000.0 nM
[10] = molecular target: Casein kinase I isoform alpha-like (Homo sapiens) (UniProt Q8N752); conditions: Compound concentration 1000.0 nM
[11] = molecular target: Casein kinase I isoform delta (Homo sapiens) (UniProt P48730); conditions: Compound concentration 1000.0 nM
[12] = molecular target: Casein kinase I isoform epsilon (Homo sapiens) (UniProt P49674); conditions: Compound concentration 1000.0 nM
[13] = molecular target: Ephrin type-A receptor 1 (Homo sapiens) (UniProt P21709); conditions: Compound concentration 1000.0 nM
[14] = molecular target: Mitogen-activated protein kinase 4 (Homo sapiens) (UniProt P31152); conditions: Compound concentration 1000.0 nM
[15] = molecular target: Vascular endothelial growth factor receptor 1 (Homo sapiens) (UniProt P17948); conditions: Compound concentration 1000.0 nM
[16] = molecular target: G protein-coupled receptor kinase 4 (Homo sapiens) (UniProt P32298); conditions: Compound concentration 1000.0 nM
[17] = molecular target: Homeodomain-interacting protein kinase 1 (Homo sapiens) (UniProt Q86Z02); conditions: Compound concentration 1000.0 nM
[18] = molecular target: Inhibitor of nuclear factor kappa-B kinase subunit beta (Homo sapiens) (UniProt O14920); conditions: Compound concentration 1000.0 nM
[19] = molecular target: Interleukin-1 receptor-associated kinase 1 (Homo sapiens) (UniProt P51617); conditions: Compound concentration 1000.0 nM
[20] = molecular target: MAP/microtubule affinity-regulating kinase 4 (Homo sapiens) (UniProt Q96L34); conditions: Compound concentration 1000.0 nM
[21] = molecular target: Hepatocyte growth factor receptor (Homo sapiens) (UniProt P08581); conditions: Compound concentration 1000.0 nM
[22] = molecular target: Serine/threonine-protein kinase mTOR (Homo sapiens) (UniProt P42345); conditions: Compound concentration 1000.0 nM
[23] = molecular target: Muscle, skeletal receptor tyrosine-protein kinase (Homo sapiens) (UniProt O15146); conditions: Compound concentration 1000.0 nM
[24] = molecular target: Serine/threonine-protein kinase Nek3 (Homo sapiens) (UniProt P51956); conditions: Compound concentration 1000.0 nM
[25] = molecular target: Serine/threonine-protein kinase NIM1 (Homo sapiens) (UniProt Q8IY84); conditions: Compound concentration 1000.0 nM
[26] = molecular target: Serine/threonine-protein kinase PAK 1 (Homo sapiens) (UniProt Q13153); conditions: Compound concentration 1000.0 nM
[27] = molecular target: Phosphatidylinositol 3-kinase C2 domain-containing subunit gamma (Homo sapiens) (UniProt O75747); conditions: Compound concentration 1000.0 nM
[28] = system: Phosphatidylinositol 4,5-bisphosphate 3-kinase catalytic subunit alpha isoform (Homo sapiens), P42336 [C420R]; conditions: Compound concentration 1000.0 nM
[29] = system: Phosphatidylinositol 4,5-bisphosphate 3-kinase catalytic subunit alpha isoform (Homo sapiens), P42336 [H1047L]; conditions: Compound concentration 1000.0 nM
[30] = molecular target: Serine/threonine-protein kinase pim-2 (Homo sapiens) (UniProt Q9P1W9); conditions: Compound concentration 1000.0 nM
[31] = molecular target: Serine/threonine-protein kinase PLK3 (Homo sapiens) (UniProt Q9H4B4); conditions: Compound concentration 1000.0 nM
[32] = molecular target: Serine/threonine-protein kinase D1 (Homo sapiens) (UniProt Q15139); conditions: Compound concentration 1000.0 nM
[33] = molecular target: Serine/threonine-protein kinase D3 (Homo sapiens) (UniProt O94806); conditions: Compound concentration 1000.0 nM
[34] = molecular target: Ribosomal protein S6 kinase alpha-5 (Homo sapiens) (UniProt O75582); conditions: Compound concentration 1000.0 nM
[35] = molecular target: Serine/threonine-protein kinase 35 (Homo sapiens) (UniProt Q8TDR2); conditions: Compound concentration 1000.0 nM
[36] = molecular target: NT-3 growth factor receptor (Homo sapiens) (UniProt Q16288); conditions: Compound concentration 1000.0 nM
[37] = molecular target: Delta-type opioid receptor (Homo sapiens) (UniProt P41143); conditions: Compound concentration 10.0 uM
[38] = molecular target: Sigma non-opioid intracellular receptor 1 (Homo sapiens, UniProt Q99720); conditions: Compound concentration 10.0 uM

Chain of Serine/threonine-protein kinase NIM1 (Homo sapiens) (Q8IY84 whole entry): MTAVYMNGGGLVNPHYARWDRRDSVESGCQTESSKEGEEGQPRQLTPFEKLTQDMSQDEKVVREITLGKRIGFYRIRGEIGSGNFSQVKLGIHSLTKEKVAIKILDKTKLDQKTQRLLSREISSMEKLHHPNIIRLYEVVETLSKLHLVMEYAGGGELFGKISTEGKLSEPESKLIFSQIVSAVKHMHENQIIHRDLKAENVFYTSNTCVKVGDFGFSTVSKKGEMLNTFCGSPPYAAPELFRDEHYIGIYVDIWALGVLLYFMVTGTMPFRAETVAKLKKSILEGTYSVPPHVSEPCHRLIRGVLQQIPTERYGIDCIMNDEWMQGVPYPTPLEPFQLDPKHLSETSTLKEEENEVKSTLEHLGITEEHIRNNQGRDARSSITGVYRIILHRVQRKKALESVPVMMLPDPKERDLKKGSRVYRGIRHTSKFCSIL
Chain of Phosphatidylinositol 4,5-bisphosphate 3-kinase catalytic subunit alpha isoform (Homo sapiens), P42336 [C420R] (P42336 whole entry C420R, canonical isoform): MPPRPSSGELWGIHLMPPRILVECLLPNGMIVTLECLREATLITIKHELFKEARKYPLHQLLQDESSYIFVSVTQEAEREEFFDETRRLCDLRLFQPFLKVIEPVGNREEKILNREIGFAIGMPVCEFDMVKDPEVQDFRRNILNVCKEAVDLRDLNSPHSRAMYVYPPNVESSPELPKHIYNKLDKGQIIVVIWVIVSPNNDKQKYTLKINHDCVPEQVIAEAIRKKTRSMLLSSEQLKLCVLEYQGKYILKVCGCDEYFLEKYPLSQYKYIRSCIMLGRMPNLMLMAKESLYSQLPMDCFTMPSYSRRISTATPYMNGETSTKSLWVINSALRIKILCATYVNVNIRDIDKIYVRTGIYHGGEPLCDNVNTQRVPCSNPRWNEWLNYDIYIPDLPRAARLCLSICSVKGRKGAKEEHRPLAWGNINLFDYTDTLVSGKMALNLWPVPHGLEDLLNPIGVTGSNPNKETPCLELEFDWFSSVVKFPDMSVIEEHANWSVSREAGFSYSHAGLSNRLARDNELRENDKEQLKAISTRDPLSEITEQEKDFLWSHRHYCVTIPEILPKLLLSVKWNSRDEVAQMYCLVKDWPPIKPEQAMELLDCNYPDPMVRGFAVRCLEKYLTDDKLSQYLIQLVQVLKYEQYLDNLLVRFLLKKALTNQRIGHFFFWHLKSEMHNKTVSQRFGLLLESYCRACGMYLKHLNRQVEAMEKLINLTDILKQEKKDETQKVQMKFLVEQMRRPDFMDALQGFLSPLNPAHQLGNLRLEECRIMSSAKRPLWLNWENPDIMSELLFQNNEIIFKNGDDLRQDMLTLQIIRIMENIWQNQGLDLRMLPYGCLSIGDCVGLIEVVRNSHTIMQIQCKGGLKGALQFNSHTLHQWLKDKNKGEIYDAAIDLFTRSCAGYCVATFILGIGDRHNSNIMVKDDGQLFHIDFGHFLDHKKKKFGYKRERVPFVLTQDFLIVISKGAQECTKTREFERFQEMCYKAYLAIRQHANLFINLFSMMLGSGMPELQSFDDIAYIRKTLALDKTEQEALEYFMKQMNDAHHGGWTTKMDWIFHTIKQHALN
Chain of ALK tyrosine kinase receptor (Homo sapiens), Q9UM73 [L1196M] (Q9UM73 whole entry L1196M, looked up, the tested form may be a part): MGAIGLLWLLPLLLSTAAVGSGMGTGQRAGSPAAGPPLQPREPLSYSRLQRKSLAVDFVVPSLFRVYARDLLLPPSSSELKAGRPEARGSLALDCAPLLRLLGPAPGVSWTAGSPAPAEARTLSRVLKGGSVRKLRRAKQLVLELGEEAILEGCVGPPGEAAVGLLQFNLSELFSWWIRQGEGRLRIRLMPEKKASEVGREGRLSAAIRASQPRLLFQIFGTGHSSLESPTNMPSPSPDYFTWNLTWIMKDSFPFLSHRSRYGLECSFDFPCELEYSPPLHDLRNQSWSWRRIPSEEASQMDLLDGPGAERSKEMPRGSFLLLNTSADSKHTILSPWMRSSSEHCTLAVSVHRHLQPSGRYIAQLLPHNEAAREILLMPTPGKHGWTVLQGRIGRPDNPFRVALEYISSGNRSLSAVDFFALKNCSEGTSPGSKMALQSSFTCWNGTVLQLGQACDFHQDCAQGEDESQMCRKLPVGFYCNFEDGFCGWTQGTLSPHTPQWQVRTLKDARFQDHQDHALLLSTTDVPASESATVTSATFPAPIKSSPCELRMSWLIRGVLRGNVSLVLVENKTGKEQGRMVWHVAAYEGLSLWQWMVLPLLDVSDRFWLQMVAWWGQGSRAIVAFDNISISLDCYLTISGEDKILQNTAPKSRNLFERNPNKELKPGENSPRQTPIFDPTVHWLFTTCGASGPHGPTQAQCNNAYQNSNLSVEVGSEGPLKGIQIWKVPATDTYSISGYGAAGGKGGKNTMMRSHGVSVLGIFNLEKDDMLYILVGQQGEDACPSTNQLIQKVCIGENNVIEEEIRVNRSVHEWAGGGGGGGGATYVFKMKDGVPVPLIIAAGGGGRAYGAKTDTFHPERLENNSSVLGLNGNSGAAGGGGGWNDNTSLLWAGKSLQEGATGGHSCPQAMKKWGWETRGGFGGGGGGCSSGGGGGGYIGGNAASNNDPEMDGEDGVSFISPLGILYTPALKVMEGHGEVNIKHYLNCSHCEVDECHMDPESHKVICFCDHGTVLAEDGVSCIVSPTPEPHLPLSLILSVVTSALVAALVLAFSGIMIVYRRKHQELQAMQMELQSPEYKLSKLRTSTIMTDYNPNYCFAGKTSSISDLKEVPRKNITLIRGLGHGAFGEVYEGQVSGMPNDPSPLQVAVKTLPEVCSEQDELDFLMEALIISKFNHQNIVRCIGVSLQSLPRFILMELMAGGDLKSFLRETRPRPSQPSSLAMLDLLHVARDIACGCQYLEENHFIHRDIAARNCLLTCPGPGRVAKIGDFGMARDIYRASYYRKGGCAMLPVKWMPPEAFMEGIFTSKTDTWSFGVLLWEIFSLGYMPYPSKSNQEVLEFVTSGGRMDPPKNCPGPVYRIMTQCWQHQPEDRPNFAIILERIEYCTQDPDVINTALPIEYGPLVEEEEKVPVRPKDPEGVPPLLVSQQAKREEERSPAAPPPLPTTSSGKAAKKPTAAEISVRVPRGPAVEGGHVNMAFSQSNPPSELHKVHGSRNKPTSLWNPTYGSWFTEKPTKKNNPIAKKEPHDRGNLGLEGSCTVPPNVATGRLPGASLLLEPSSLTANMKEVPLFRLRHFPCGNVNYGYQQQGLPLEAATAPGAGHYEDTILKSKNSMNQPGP
Chain of Serine/threonine-protein kinase D1 (Homo sapiens) (Q15139 whole entry): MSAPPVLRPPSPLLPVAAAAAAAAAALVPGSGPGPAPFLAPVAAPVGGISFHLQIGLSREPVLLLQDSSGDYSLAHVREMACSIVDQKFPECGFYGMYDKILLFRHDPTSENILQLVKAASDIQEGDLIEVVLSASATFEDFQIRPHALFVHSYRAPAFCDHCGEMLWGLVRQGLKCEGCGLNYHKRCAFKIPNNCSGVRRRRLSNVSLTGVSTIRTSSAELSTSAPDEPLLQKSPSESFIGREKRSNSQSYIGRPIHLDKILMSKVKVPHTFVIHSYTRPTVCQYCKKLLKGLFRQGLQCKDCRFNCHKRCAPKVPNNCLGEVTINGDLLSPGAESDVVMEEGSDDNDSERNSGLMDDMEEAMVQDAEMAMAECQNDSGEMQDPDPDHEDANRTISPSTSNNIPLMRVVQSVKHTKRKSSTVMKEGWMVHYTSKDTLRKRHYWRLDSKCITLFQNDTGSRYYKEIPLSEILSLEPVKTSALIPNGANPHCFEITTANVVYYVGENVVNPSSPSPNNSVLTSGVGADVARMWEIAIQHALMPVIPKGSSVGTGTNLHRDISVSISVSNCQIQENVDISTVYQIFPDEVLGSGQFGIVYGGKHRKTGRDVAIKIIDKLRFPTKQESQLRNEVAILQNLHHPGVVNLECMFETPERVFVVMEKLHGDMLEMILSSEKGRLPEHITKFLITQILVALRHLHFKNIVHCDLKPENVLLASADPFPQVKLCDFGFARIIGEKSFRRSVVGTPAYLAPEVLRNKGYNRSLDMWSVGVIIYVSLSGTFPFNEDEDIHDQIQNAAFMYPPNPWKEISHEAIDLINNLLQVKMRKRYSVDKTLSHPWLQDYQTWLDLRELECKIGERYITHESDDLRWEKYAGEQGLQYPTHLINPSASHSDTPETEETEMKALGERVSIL
Chain of Serine/threonine-protein kinase Nek3 (Homo sapiens) (P51956 whole entry): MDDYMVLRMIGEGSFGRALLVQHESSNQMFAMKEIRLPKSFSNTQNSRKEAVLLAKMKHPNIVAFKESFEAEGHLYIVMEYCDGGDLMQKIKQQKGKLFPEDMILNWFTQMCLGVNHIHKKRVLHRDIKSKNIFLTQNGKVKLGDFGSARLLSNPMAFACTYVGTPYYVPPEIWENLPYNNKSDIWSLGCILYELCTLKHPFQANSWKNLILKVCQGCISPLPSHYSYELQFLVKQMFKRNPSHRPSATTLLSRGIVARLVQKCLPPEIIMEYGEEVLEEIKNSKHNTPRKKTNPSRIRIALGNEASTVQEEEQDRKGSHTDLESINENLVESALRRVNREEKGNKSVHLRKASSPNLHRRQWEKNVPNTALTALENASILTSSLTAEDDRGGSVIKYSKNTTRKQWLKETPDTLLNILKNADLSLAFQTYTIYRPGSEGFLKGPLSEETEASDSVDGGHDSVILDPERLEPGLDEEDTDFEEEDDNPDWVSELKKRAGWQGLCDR
Chain of Phosphatidylinositol 4,5-bisphosphate 3-kinase catalytic subunit alpha isoform (Homo sapiens), P42336 [H1047L] (P42336 whole entry H1047L, canonical isoform): as the sequence (P42336 whole entry C420R, canonical isoform) above, with R420C, H1047L counted along it
Chain of Cyclin-dependent kinase 9 (Homo sapiens) (P50750 whole entry, canonical isoform): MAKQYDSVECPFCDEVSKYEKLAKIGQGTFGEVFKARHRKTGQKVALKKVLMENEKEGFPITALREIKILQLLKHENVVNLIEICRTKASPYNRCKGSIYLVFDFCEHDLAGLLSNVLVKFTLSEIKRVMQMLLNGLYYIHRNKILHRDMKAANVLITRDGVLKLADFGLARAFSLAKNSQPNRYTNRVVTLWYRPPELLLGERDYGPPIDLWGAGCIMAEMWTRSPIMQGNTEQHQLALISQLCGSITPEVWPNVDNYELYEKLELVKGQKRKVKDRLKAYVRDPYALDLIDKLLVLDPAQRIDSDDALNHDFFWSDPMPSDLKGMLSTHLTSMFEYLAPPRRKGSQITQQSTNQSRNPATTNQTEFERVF

| SMILES | % Inhibition of Control Specific Binding (Mean n=2) [1] [%] | % Inhibition of Control Specific Binding (Mean n=2) [2] [%] | residual activity [3] [%] | residual activity [4] [%] | residual activity [5] [%] | residual activity [6] [%] | residual activity [7] [%] | residual activity [8] [%] | residual activity [9] [%] | residual activity [10] [%] | residual activity [11] [%] | residual activity [12] [%] | residual activity [13] [%] | residual activity [14] [%] | residual activity [15] [%] | residual activity [16] [%] | residual activity [17] [%] | residual activity [18] [%] | residual activity [19] [%] | residual activity [20] [%] | also measured |
| --- | --- | --- | --- | --- | --- | --- | --- | --- | --- | --- | --- | --- | --- | --- | --- | --- | --- | --- | --- | --- | --- |
| COc1ccc2c(c1)O[C@@H](c1ccc(OC)c(OC)c1)C[C@H]2NC(=O)C1(c2ccc3c(c2)OC(F)(F)O3)CC1 [A-1596586] | 6.4 | 10.4 | 78 | 85 | 90 | 76 | 94 | 100 | 89 | 100 | 100 | 100 | 93 | 99 | 100 | 92 | 86 | 95 | 80 | 92 | residual activity [21]: 100%; residual activity [22]: 100%; residual activity [23]: 94%; residual activity [24]: 76%; residual activity [25]: 94%; residual activity [26]: 89%; residual activity [27]: 83%; residual activity [28]: 86%; residual activity [29]: 77%; residual activity [30]: 100%; residual activity [31]: 92%; residual activity [32]: 95%; residual activity [33]: 97%; residual activity [34]: 100%; residual activity [35]: 98%; residual activity [36]: 83%; inhibition [37]: -7.29%; inhibition [38]: 82.8% |
| COc1ccc2c(c1)O[C@H](c1ccc(OC)c(OC)c1)C[C@@H]2NC(=O)C1(c2ccc3c(c2)OC(F)(F)O3)CC1 [A-1596584] | 1.2 | 5 | 100 | 100 | 100 | 100 | 100 | 100 | 78 | 100 | 92 | 100 | 88 | 100 | 100 | 100 | 87 | 97 | 93 | 88 | residual activity [21]: 87%; residual activity [22]: 100%; residual activity [23]: 100%; residual activity [24]: 90%; residual activity [25]: 84%; residual activity [26]: 100%; residual activity [27]: 61%; residual activity [28]: 91%; residual activity [29]: 100%; residual activity [30]: 100%; residual activity [31]: 100%; residual activity [32]: 100%; residual activity [33]: 100%; residual activity [34]: 100%; residual activity [35]: 100%; residual activity [36]: 92%; inhibition [37]: -9.84%; inhibition [38]: 53% |
